Laboratory results from patent US20060124903A1, “Aerosol preparation comprising sealed container and enclosed therein aerosol composition containing marcolide compound” (Astellas Pharma Inc., priority 2003, published 2006).

Legend:
[1] = Content of tacrolimus solvable in liquefied hydrofluoroalkane; type: physicochemical; settings: liquefied hydrofluoroalkane (HFA-134a, HFA-227)
[2] = Adsorptivity of tacrolimus to resinous material constituting valve part (FIG. 3); type: physicochemical
Text: FIG. 3 illustrates the adsorptivity of the active ingredient contained in the aerosol composition to each sample resinous material soaked in the aerosol composition.
The axis of ordinates designates the ratio of (remaining) active ingredient in the aerosol composition to the initial active ingredient therein when the percentage of the initial active ingredient contained in the aerosol composition is 100%.
The aerosol composition used in the test of FIG. 3 contains a 0.025 wt % macrolide compound. To be concrete, the aerosol composition is a solution that contains 2.5 mg tacrolimus serving as the active ingredient, 10 ml liquefied hydrofluoroalkane (HFA-134a) serving as the propellant, and a little amount of lubricant normally used for metered dose inhalation.
In the test of FIG. 3, each of the sample resinous materials is formed into a circular shape having a 5 mm diameter (a 39 mm^2 surface area), similar to the form of first gasket 11. Each of the sample resinous materials is soaked in the aerosol composition solution under the condition of 75% relative humidity and 50° C. for a month. […]

content of the tacrolimus solvable in the liquefied hydrofluoroalkane [1] | ratio of (remaining) active ingredient in the aerosol composition to the initial active ingredient [2] | Molecule
not more than 0.15 wt % |  | C=CC[C@@H]1/C=C(\C)C[C@H](C)C[C@H](OC)[C@H]2O[C@@](O)(C(=O)C(=O)N3CCCC[C@H]3C(=O)O[C@H](/C(C)=C/[C@@H]3CC[C@@H](O)[C@H](OC)C3)[C@H](C)[C@@H](O)CC1=O)[C@H](C)C[C@@H]2OC [tacrolimus]
 | scarcely reduced | polyethylene
 | scarcely reduced | polypropylene
